Measured values published in US8304447B2, “2-acylaminopropoanol-type glucosylceramide synthase inhibitors” (Genzyme Corporation, priority 2007, dated 2012).
Where two headings read alike, the source gives them in different places.

System: GM3
Assay: GM3 Elisa assay
Type: cell-based
Conditions: B16-FO cells, read-out: IC50_uM_Mean
How it was run: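 Cellular GM3 ELISA: fixed cells probed with monoclonal anti-GM3 (NeuAc), HRP-conjugated anti-IgM and fluorogenic Quantablu substrate, read at Ex 325/Em 420. Cells were B16-FO, treated 2 days after a 6 h attachment on collagen-coated wells.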

[1] = 48 h, Table 1, 2 days incubation
[2] = 48 h, Table 2, 2 days incubation

| SMILES | IC50 (Table 3 (IC 50 Values)) | further results |
| --- | --- | --- |
| O=C(N[C@H](CN1CCCC1)[C@H](O)c1ccc2c(c1)OCCO2)c1ccc2sccc2c1 [Compound 19, N-((1R,2R)-1-(2,3-dihydrobenzo[β][1,4]dioxin-6-yl)-1-hydroxy-3-(pyrrolidin-1-yl)propan-2-yl)benzo[b]thiophene-5-carboxamide] | – | IC50 [1]: 100 to 1000 nM |
| COc1cccc(CNC(=O)N[C@H](CN2CCCC2)[C@H](O)c2ccc3c(c2)OCCO3)c1 [Compound 80, 1-((1R,2R)-1-(2,3-dihydrobenzo[β][1,4]dioxin-6-yl)-1-hydroxy-3-(pyrrolidin-1-yl)propan-2-yl)-3-(3-methoxybenzyl)urea] | – | IC50 [1]: 100 to 1000 nM |
| COCCOc1ccc(C(=O)CCCCC(=O)N[C@H](CN2CC[C@H](O)C2)[C@H](O)c2ccc(OCCCCF)cc2)cc1 [Compound 455] | ≤ 100 nM | – |
| COc1ccc(OCCC(=O)N[C@H](CN2CCCC2)[C@H](O)c2ccc(C)c(F)c2)cc1 [Compound 349] | 100 to 1000 nM | – |
| CC(O)(CCCCCC(=O)N[C@H](CN1CCCC1)[C@H](O)c1ccc2c(c1)OCCO2)C1CCCCC1 (some centres unmarked) [Compound 641] | ≤ 100 nM | – |
| COc1ccc(C(=O)CCCCCC(=O)N[C@H](CN2C(C)CCCC2C)[C@H](O)c2ccc3c(c2)OCCO3)cc1 (some centres unmarked) [Compound 602] | 3000 to 10000 nM | – |
| O=C(NCc1ccc(Cl)cc1)N[C@H](CN1CC[C@@H](F)C1)[C@H](O)c1ccc(OCCCCF)cc1 [Compound 735] | ≤ 100 nM | – |
| COc1ccc([C@@H](OC(=O)CCOc2ccc(C)cc2)[C@@H](CN2CCCC2)NC(=O)CCOc2ccc(C)cc2)cc1 [Compound 248] | – | IC50 [2]: 100 to 1000 nM |
| COc1ccc(OCCC(=O)N[C@H](CN2CCC[C@H]2C(F)(F)F)[C@H](O)c2ccc3c(c2)OCCO3)cc1 [Compound 542] | 3000 to 10000 nM | – |
| COc1ccc(C(=O)CCCCC(=O)N(Cc2ccc(OC(F)F)cc2)[C@H](CN2CCCC2)[C@H](O)c2ccc(O)cc2)cc1 [Compound 427] | 3000 to 10000 nM | – |
| COc1ccc(OCCC(=O)N[C@H](CN2C[C@@H]3CC[C@H]2C3)[C@H](O)c2ccc3c(c2)OCCO3)cc1 [Compound 544] | 100 to 1000 nM | – |
| COc1ccc(OCCC(=O)N[C@H](CN2CCCC2)[C@H](O)c2ccc3c(c2)OC(F)(F)O3)cc1 [Compound 407] | 1000 to 3000 nM | – |
| COc1ccc(C(=O)CCCCC(=O)N[C@H](CN2CCCC2)[C@H](O)c2ccc3c(c2)OCO3)cc1 [Compound 267, N-((1R,2R)-1-(benzo[δ][1,3]dioxol-5-yl)-1-hydroxy-3-(pyrrolidin-1-yl)propan-2-yl)-6-(4-methoxyphenyl)-6-oxohexanamide (2S,3S)-2,3-dihydroxysuccinate] | – | IC50 [2]: ≤ 100 nM |
| CCCCCCOc1ccc([C@@H](O)[C@@H](CN2C3CCC2CC3)NC(=O)CCCCC(=O)c2ccc(OC)cc2)cc1 [Compound 370] | ≤ 100 nM | – |
| CCCCCCOc1ccc([C@@H](O)[C@@H](CN2CC[C@H](O)C2)NC(=O)CCOc2ccc(OC)cc2)cc1 [Compound 454] | ≤ 100 nM | – |
| COc1ccc(C(=O)CCC(=O)CCC(=O)N[C@H](CN2CCCC2)[C@H](O)c2ccc3c(c2)OCCO3)cc1 [Compound 378] | ≤ 100 nM | – |
| CCCCCCOc1ccc([C@@H](O)[C@@H](CN2CC[C@H](O)C2)NC(=O)CCOc2ccc(Cl)cc2)cc1 [Compound 729] | ≤ 100 nM | – |
| COc1ccc(C(=O)CCCCCC(=O)N[C@H](CN2CCCC2)[C@H](O)c2ccccc2OC)cc1 [Compound 699] | ≤ 100 nM | – |
| O=C(Nc1ccc(OC(F)(F)F)cc1)N[C@H](CN1CCCC1)[C@H](O)c1ccc2c(c1)OCCO2 [Compound 82, 1-((1R,2R)-1-(2,3-dihydrobenzo[β][1,4]dioxin-6-yl)-1-hydroxy-3-(pyrrolidin-1-yl)propan-2-yl)-3-(4-(trifluoromethoxy)phenyl)urea] | – | IC50 [1]: ≤ 100 nM |

| SMILES | IC50 (Table 3 (IC 50 Values)) | further results |
| --- | --- | --- |
| COCCOc1ccc([C@@H](O)[C@@H](CN2CCCC2)NC(=O)CCOc2ccc(OC)cc2)cc1 [Compound 714] | 3000 to 10000 nM | – |
| O=C(CCCCOCC(F)(F)F)N[C@H](CN1CCCC1)[C@H](O)c1ccc(OCc2ccccc2)cc1 [Compound 647] | 100 to 1000 nM | – |
| COc1ccc([C@@H](O)[C@@H](CN2CCCC2)NC(=O)OCc2ccccc2)cc1 [Compound 289, benzyl (1R,2R)-1-hydroxy-1-(4-methoxyphenyl)-3-(pyrrolidin-1-yl)propan-2-ylcarbamate] | – | IC50 (Table 2, 2 days incubation): 100 to 1000 nM |
| COc1ccc(CNC(=O)N[C@H](CN2CC[C@H](O)C2)[C@H](O)c2ccc(OCCCCF)cc2)cc1 [Compound 498] | ≤ 100 nM | – |
| COc1ccc(C(=O)CCCC(=O)N[C@H](CN2CCCC2)[C@H](O)/C=C/c2ccccc2)cc1 [Compound 393] | 3000 to 10000 nM | – |
| O=C(CCCNC(=O)NC1CCCCC1)N[C@H](CN1CCCC1)[C@H](O)c1ccc2c(c1)OCCO2 [Compound 691] | 3000 to 10000 nM | – |
| CC(C)Oc1ccc([C@@H](O)[C@@H](CN2CCC(F)C2)NC(=O)NCc2ccc(Cl)cc2)cc1 (some centres unmarked) [Compound 726] | 100 to 1000 nM | – |
| Cc1nc(-c2ccc(NC(=O)N[C@H](CN3CCCC3)[C@H](O)c3ccc4c(c3)OCCO4)cc2)cs1 [Compound 133, 1-((1R,2R)-1-(2,3-dihydrobenzo[β][1,4]dioxin-6-yl)-1-hydroxy-3-(pyrrolidin-1-yl)propan-2-yl)-3-(4-(2-methylthiazol-4-yl)phenyl)urea] | – | IC50 [1]: 3000 to 10000 nM |
| CCCCCCCC(=O)N[C@H](CC1CC(OCCC)C1)[C@H](O)c1ccc2c(c1)OCCO2 (some centres unmarked) [Compound 596] | 3000 to 10000 nM | – |
| Cc1ccc([C@@H](O)[C@@H](CN2CCCC2)NC(=O)Cc2ccc(OC(F)(F)F)cc2)cc1F [Compound 347] | 100 to 1000 nM | – |
| O=C(NCc1ccccc1)N[C@H](CN1CCCC1)[C@H](O)c1ccc2c(c1)OCCO2 [Compound 6, 1-benzyl-3-((1R,2R)-1-(2,3-dihydrobenzo[β][1,4]dioxin-6-yl)-1-hydroxy-3-(pyrrolidin-1-yl)propan-2-yl)urea] | – | IC50 [1]: 100 to 1000 nM |
| COc1ccc(OCCCC(=O)N[C@H](CN2CC[C@H](O)C2)[C@H](O)c2ccc(OC(C)C)cc2)cc1 [Compound 733] | ≤ 100 nM | – |
| COc1ccc([C@@H](O)[C@@H](CN2CCCC2)NC(=O)CCCCCC(C)(C)OC)cc1OC [Compound 277] | – | IC50 [2]: 3000 to 10000 nM |
| COc1ccc(OCCC(=O)N[C@H](CN2CCCC2)[C@H](O)c2ccc3c(c2)OCO3)cc1 [Compound 259] | – | IC50 [2]: ≤ 100 nM |
| COc1ccc(OCCC(=O)N[C@H](CN2CCC(C)CC2)[C@H](O)c2ccc3c(c2)OCCO3)cc1 [Compound 610] | 3000 to 10000 nM | – |
| COCCc1ccc([C@@H](O)[C@@H](CN2CCCC2)NC(=O)Cc2ccc(OC(F)(F)F)cc2)cc1 [Compound 354] | 100 to 1000 nM | – |
| COc1ccc(OCCC(=O)N[C@H](CN2CCCC2)[C@H](O)c2ccc(C(F)(F)F)cc2)cc1 [Compound 489] | 3000 to 10000 nM | – |
| COC[C@@H]1CCCN1C[C@@H](NC(=O)CCCCCC(=O)c1ccc(OC)cc1)[C@@H](O)c1ccc2c(c1)OCCO2 [Compound 533] | 100 to 1000 nM | – |
| O=C(CCCCOCC(F)(F)F)N[C@H](CN1CCCC1)[C@H](O)c1ccc2c(c1)OCCO2 [Compound 617] | 1000 to 3000 nM | – |

| SMILES | IC50 (Table 3 (IC 50 Values)) | further results |
| --- | --- | --- |
| CCCCCCOc1ccc([C@@H](O)[C@@H](CN2CC[C@H](O)C2)NC(=O)CCCOc2ccc(OC)cc2)cc1 [Compound 728] | ≤ 100 nM | – |
| COc1ccc(OCCC(=O)N[C@H](CN2CC[C@H](O)C2)[C@H](O)c2ccc(OC(C)C)cc2)cc1 [Compound 447] | ≤ 100 nM | – |
| CCCCCCCC(=O)N[C@H](CN1CCCC1)[C@H](O)c1cc(O)c2c(c1)OCCO2 [Compound 318] | – | IC50 [2]: 100 to 1000 nM |
| COc1ccc(OCCC(=O)N[C@H](CN2C3CCC2CC3)[C@H](O)c2ccc3c(c2)OCCO3)cc1 [Compound 523] | 100 to 1000 nM | – |
| O=C(CCCCC(=O)C1CCC(F)(F)CC1)N[C@H](CN1CC[C@@H](F)C1)[C@H](O)c1ccc(OCc2ccccc2)cc1 [Compound 573] | 100 to 1000 nM | – |
| COc1ccc(C(=O)CCCCCC(=O)N[C@H](CN2CCCC2)[C@H](O)c2ccc(Cl)cc2)cc1 [Compound 380] | ≤ 100 nM | – |
| CCCCCCCC(=O)N[C@H](CN1CCC(C)(C)C1)[C@H](O)c1ccc2c(c1)OCCO2 [Compound 521] | 3000 to 10000 nM | – |
| COc1ccc(OCCC(=O)N[C@H](CN2CC3CC3C2)[C@H](O)c2ccc3c(c2)OCCO3)cc1 (some centres unmarked) [Compound 516] | 100 to 1000 nM | – |
| COc1ccc(OCCCC(=O)N[C@H](CN2CCCC2)[C@H](O)c2ccc3c(c2)OCCO3)cc1 [Compound 197, N-((1R,2R)-1-(2,3-dihydrobenzo[β][1,4]dioxin-6-yl)-1-hydroxy-3-(pyrrolidin-1-yl)propan-2-yl)-4-(4-methoxyphenoxy)butanamide (2S,3S)-2,3-dihydroxysuccinate] | – | IC50 [1]: ≤ 100 nM |
| Cc1ccc(OCCC(=O)N[C@H](CN2CC[C@H](O)C2)[C@H](O)c2ccc(OCCCCF)cc2)cc1 [Compound 496] | ≤ 100 nM | – |
| COc1ccc(C(=O)CCCCCC(=O)N[C@H](CN2CCCC2)[C@H](O)c2ccc(OC)c(Cl)c2)cc1 [Compound 707] | ≤ 100 nM | – |
| COc1ccc(OCCC(=O)N[C@H](CN2CCCC2)[C@H](O)c2sccc2C)cc1 [Compound 363] | 100 to 1000 nM | – |
| CCCCCCCC(=O)N[C@H](CN1CCCC1)[C@H](O)c1ccc(Cl)cc1 [Compound 385] | 1000 to 3000 nM | – |
| COc1ccc([C@@H](O)[C@@H](CN2CCCC2)NC(=O)CCCCC(=O)c2ccc(OC(C)C)cc2)cc1 [Compound 272] | – | IC50 [2]: ≤ 100 nM |
| O=C(CCCCCOCC(F)(F)F)N[C@H](CN1CCCC1)[C@H](O)c1ccc2c(c1)OCCO2 [Compound 620] | 100 to 1000 nM | – |
| COc1ccc([C@@H](O)[C@@H](CO)NC(=O)OCc2ccccc2)c(OC)c1 [Compound 352] | 3000 to 10000 nM | – |
| COc1ccc(OCCC(=O)N[C@H](CN2CCCC2)[C@H](O)c2ccc(OC)cc2)cc1 [Compound 262, N-[2-Hydroxy-2-(4-methoxy-phenyl)-1-pyrrolidin-1-ylmethyl-ethyl]-3-(4-methoxy-phenoxy)-propionamide] | – | IC50 [2]: ≤ 100 nM |
| COc1ccc(OCCC(=O)N[C@H](CN2CCCC2)[C@H](O)c2ccc3c(c2)OC(F)(F)C(F)(F)O3)cc1 [Compound 402] | 3000 to 10000 nM | – |
